Measured values published in patent publication US9686989B2, “Synergistic combination of a flurochloridone compound and zinc pyrithione for dry film protection” (Rohm and Haas Company, priority 2013, dated 2017).

System: Chlorella sp. ATCC 7516
Test: Algal efficacy testing of dry paint film (modified ASTM 5589, 6-well plates)
Assay type: cell-based
Details: 672 h, 4 weeks, pass level ≧75% inhibition
Protocol: Slurries containing 33% antimicrobial active ingredient (flurochloridone) were post added to a white, acrylic/silicone based outdoor paint free of biocides to give a total active ingredient concentration of 10000 and 1000 ppm respectively. KATHON™ 893T (100% OIT) was post added to a white, acrylic/silicone based outdoor paint free of biocides to give a total active ingredient concentration of 10000 and 1000 ppm respectively. These paints were then diluted with an antimicrobial free acrylic/silicone based paint and mixed to prepare targeted concentrations of antimicrobial compounds for the testing. The total biocides concentrations tested were 125, 250, 500, 1000, 2000 and 5000 ppm. After biocides addition or dilution, the paints were mixed 90 seconds with the horse power shaker (AXEL 75M3372/Agitateur SO-10MI) until uniformity was achieved. […]
Each well that contains a tested coupon was inoculated with 1750 μl of algal suspensions (1×10^6 cfu/ml) making sure that the whole surface (paint film as well as the agar surrounding it) was evenly covered. […] The total area inhibited was evaluated at the end of each week according to percent area covered in 5% increments
At the end of the four week incubation period, the samples were scored for percent inhibition regarding color intensity compared to the blank sample. […]
The SI is calculated based on F. C. […]

Compound	inhibition at 5000 ppm (total conc 5000 ppm in paint) [%]	inhibition at 2000 ppm (total conc 2000 ppm in paint) [%]
O=C1C(Cl)C(CCl)CN1c1cccc(C(F)(F)F)c1 (centres unmarked) [Flurochloridone, 3-chloro-4-(chloromethyl)-1-[3-(trifluoromethyl)phenyl]-2-pyrrolidinone]	90	
CCCCCCCCn1sccc1=O [OIT, 2-n-octyl-4-isothiazolin-3-one]		65
